Assay results taken from patent US11660293B2, “Substituted 2-azabicyclo[3.1.1]heptane and 2-azabicyclo[3.2.1]octane derivatives as orexin receptor antagonists” (Chronos Therapeutics Limited, priority 2017, dated 2023).

Tests used:
[1] = molecular target: T1, human Orexin type 1 receptors (Homo sapiens (Human), UniProt O43613); test: Scintillation Proximity Assay (SPA) binding assay, [3H]SB-674042 displacement, CHO-hOX1 membranes; conditions: for Ki: read-out: OX1 pKi (SPA binding) (converted)
[2] = molecular target: T2, human Orexin type 2 receptors (Homo sapiens (Human), UniProt O43614); test: Scintillation Proximity Assay (SPA) binding assay, [3H]EMPA displacement, HEK-hOX2 membranes; conditions: for Ki: read-out: OX2 pKi (SPA binding) (converted)
[3] = Measurement of brain fraction unbound (equilibrium dialysis); type: in vitro ADME; conditions: pH 7.4, rat brain homogenate, 37° C., read-out: FU brain (%, rat)
Experimental: Measurement of Brain Fraction Unbound (Equilibrium Dialysis)
Brain fractions unbound were determined using equilibrium dialysis in a 96-well format as described in Kalvass and Maurer, 2002. Brain homogenates were prepared using 2 ml/g CSF surrogate (7.30 g/l NaCl, 186.4 mg/l KCl, 239.9 mg/l MgCl2, 185.2 mg/l CaCl2), and 536.0 mg/l Na2HPO4.7H2O, pH 7.4). Dialysis membranes (12-14-kDA cutoff) obtained from Spectrum Laboratories Inc. (Rancho Dominguez, Calif.) were conditioned in water (HPLC grade) for 60 min, followed by 20 min in 20% ethanol, and 15 min in CSF surrogate.
Assay compound concentrations were 5 μM. Diluted brain homogenate was spiked with the compound of interest, and 150-μl aliquots were loaded into the 96-well equilibrium dialysis apparatus and dialyzed against an equal volume of CSF surrogate. Equilibrium was achieved by incubating the 96-well equilibrium dialysis apparatus in a temperature-controlled incubator at 37° C. for 5 h, using an orbital shaker at 125 rpm. At the end of the incubation period, 50-μl aliquots of brain homogenate and buffer were transferred to a 96-well plate, and the composition in each tube was balanced with control fluid to equalize the brain and buffer volumes. Sample extraction was performed by addition of 400 μl of acetonitrile containing internal standard (rolipram). The samples were then vortex-mixed and centrifuged, and 100 μl of supernatants was transferred into a 96-well plate, diluted with 200 μl of 16% acetonitrile/water, and analyzed by liquid chromatography-tandem mass spectrometry (LC-MS/MS).
The brain unbound fraction (FU brain) was calculated from the ratio of analyte/internal standard peak area ratios determined in buffer versus brain homogenate samples using equation (1), which accounts for the effect of tissue dilution on unbound fraction (Kalvass and Maurer, 2002):
[formula] where D is the dilution factor in brain homogenate and fu-diluted is the measured free fraction of diluted brain tissue. Results

[4] = molecular target: T1, human Orexin type 1 receptors; test: Intracellular calcium measurement (FLIPR), antagonism of Orexin-A at EC80 in CHO-hOX1 cells
[5] = molecular target: T2, human Orexin type 2 receptors; test: Intracellular calcium measurement (FLIPR), antagonism of Orexin-A at EC80 in CHO-hOX2 cells

T1 sequence (O43613 whole entry): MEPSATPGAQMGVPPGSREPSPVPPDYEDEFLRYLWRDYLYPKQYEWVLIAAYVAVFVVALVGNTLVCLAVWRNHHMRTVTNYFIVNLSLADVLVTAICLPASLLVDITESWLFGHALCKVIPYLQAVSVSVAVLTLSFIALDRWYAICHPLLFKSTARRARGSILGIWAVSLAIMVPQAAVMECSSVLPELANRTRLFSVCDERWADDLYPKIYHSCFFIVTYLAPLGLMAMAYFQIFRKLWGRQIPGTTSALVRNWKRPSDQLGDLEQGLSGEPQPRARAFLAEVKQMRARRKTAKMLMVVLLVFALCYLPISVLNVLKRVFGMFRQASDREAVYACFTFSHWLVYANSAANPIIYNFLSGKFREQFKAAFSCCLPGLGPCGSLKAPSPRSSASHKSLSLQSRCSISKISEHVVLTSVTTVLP
T2 sequence (O43614 whole entry): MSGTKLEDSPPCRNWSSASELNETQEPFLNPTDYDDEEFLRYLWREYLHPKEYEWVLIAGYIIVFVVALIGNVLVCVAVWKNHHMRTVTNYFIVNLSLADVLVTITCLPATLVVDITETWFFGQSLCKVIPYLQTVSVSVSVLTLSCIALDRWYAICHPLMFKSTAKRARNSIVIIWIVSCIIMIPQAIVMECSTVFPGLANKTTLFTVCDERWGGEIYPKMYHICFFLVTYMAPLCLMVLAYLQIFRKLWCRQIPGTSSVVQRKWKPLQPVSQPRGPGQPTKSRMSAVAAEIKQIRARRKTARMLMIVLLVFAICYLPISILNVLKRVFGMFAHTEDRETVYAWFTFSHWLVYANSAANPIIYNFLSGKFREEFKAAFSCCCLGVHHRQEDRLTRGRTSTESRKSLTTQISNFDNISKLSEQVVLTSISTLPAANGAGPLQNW

Ki [4] [nM] | Ki [5] [nM] | Structure (SMILES) | other results
24 | 110 | Cc1ccc(-c2ncccn2)c(C(=O)N2C(COc3ccc(Cl)cn3)CC3CC2C3)c1 (single isomer, unassigned) [Example 33, (3S or 3R) 3-{[(5-chloropyridin-2-yl)oxy]methyl}-2-{[5-methyl-2-(pyrimidin-2-yl)phenyl]carbonyl}-2-azabicyclo[3.1.1]heptane] | 
67.6 | 200 | Cc1ccc(-c2ncccn2)c(C(=O)N2C(COc3ccc(C(F)(F)F)cn3)CC3CC2C3)c1 (single isomer, unassigned) [Example 36, (3S or 3R) 2-{[5-methyl-2-(pyrimidin-2-yl)phenyl]carbonyl}-3-({[5-(trifluoromethyl)pyridin-2-yl]oxy}methyl)-2-azabicyclo[3.1.1]heptane] | 
18.2 | 107 | Cc1ccc(-c2ncccn2)c(C(=O)N2C(CCOc3ccc(F)cc3)CC3CC2C3)c1 (single isomer, unassigned) [Example 42, (3S or 3R) 3-[2-(4-fluorophenoxy)ethyl]-2-[5-methyl-2-(pyrimidin-2-yl)benzoyl]-2-azabicyclo[3.1.1]heptane] | 
1.38 | 562 | Cc1nc(C(=O)N2C3CC(C3)[C@@H](C)[C@@H]2COc2ccc(F)cc2)c(-c2ccccc2)s1 (single isomer, unassigned) [Example 67, (3S,4S or 3R,4R) 3-(4-fluorophenoxymethyl)-4-methyl-2-(2-methyl-5-phenyl-1,3-thiazole-4-carbonyl)-2-azabicyclo[3.1.1]heptane] | 
0.741 | 138 | Cc1nc(C(=O)N2C3CC(C3)[C@H](C)[C@@H]2COc2ccc(F)cc2)c(-c2ccccc2)s1 (single isomer, unassigned) [Example 68, (3S,4R or 3R,4S) 3-(4-fluorophenoxymethyl)-4-methyl-2-(2-methyl-5-phenyl-1,3-thiazole-4-carbonyl)-2-azabicyclo[3.1.1]heptane] | 
13.5 | 2450 | Cc1ccc(-c2ncccn2)c(C(=O)N2C3CC(C3)[C@H](C)[C@H]2COc2ccc(F)cc2)c1 (single isomer, unassigned) [Example 70, (3S,4S or 3R,4R) 3-(4-fluorophenoxymethyl)-4-methyl-2-[5-methyl-2-(pyrimidin-2-yl)benzoyl]-2-azabicyclo[3.1.1]heptane] | 
3.39 | 89.1 | Cc1ccc(-c2ncccn2)c(C(=O)N2C3CC(C3)[C@@H](C)[C@H]2COc2ccc(F)cc2)c1 (single isomer, unassigned) [Example 71, (3S,4R or 3R,4S) 3-(4-fluorophenoxymethyl)-4-methyl-2-[5-methyl-2-(pyrimidin-2-yl)benzoyl]-2-azabicyclo[3.1.1]heptane] | 
10.5 | 105 | Cc1ccc(-c2ncccn2)c(C(=O)N2C3CC(C3)[C@@H](C)C2COc2ccc(F)cn2)c1 (single isomer, unassigned) [Example 75, (3S,4R or 3R,4S) 3-{[(5-fluoropyridin-2-yl)oxy]methyl}-4-methyl-2-[5-methyl-2-(pyrimidin-2-yl)benzoyl]-2-azabicyclo[3.1.1]heptane] | 
9.77 | 58.9 | Cc1ccc(-c2ncccn2)c(C(=O)N2C3CC(C3)[C@H](C)[C@@H]2COc2ccc(F)cn2)n1 (single isomer, unassigned) [Example 81, (3S,4R or 3R,4S) 3-{[(5-fluoropyridin-2-yl)oxy]methyl}-4-methyl-2-[6-methyl-3-(pyrimidin-2-yl)pyridine-2-carbonyl]-2-azabicyclo[3.1.1]heptane] | 
10 | 2240 | Cc1ccc(-c2ncccn2)c(C(=O)N2C3CC(C3)[C@@H](C)[C@@H]2COc2ccc(F)cn2)n1 (single isomer, unassigned) [Example 82, (3S,4S or 3R,4R) 3-{[(5-fluoropyridin-2-yl)oxy]methyl}-4-methyl-2-[6-methyl-3-(pyrimidin-2-yl)pyridin-2-carbonyl]-2-azabicyclo[3.1.1]heptane] | 
28.8 | 589 | Cc1ccc(-c2ncccn2)c(C(=O)N2C3CC(C3)[C@@H](C)C2COc2ccc(F)cn2)c1 (some centres unmarked) [Example 74] | 

The next lines start with the compound.

Structure (SMILES) | Ki [4] [nM] | Ki [5] [nM] | other results
Cc1ccc(-n2nccn2)c(C(=O)N2C3CC(C3)[C@@H](C)C2CNc2cnc(C(F)(F)F)cn2)n1 (mixture of isomers) [Example 165, cis-N-({4-methyl-2-[6-methyl-3-(2H-1,2,3-triazol-2-yl)pyridine-2-carbonyl]-2-azabicyclo[3.1.1]heptan-3-yl}methyl)-5-(trifluoromethyl)pyrazin-2-amine] |  |  | OX1 pKi (SPA binding) ([1]; Table 2, [3H]SB-674042 2 nM): 7.63; OX2 pKi (SPA binding) ([2]; Table 2, [3H]EMPA 2 nM): 4.83; fraction unbound at 5 h, 5 μM [3]: 0.0477
C[C@@H]1C2CC(C2)N(C(=O)c2nn(C)cc2-c2ncccn2)C1CNc1ccc(C(F)(F)F)cn1 (mixture of isomers) [Example 213, cis-N-({4-methyl-2-[1-methyl-4-(pyrimidin-2-yl)-1H-pyrazole-3-carbonyl]-2-azabicyclo[3.1.1]heptan-3-yl}methyl)-5-(trifluoromethyl)pyridin-2-amine] |  |  | OX1 pKi (SPA binding) ([1]; Table 2, [3H]SB-674042 2 nM): 7.91; OX2 pKi (SPA binding) ([2]; Table 2, [3H]EMPA 2 nM): 4.39; fraction unbound at 5 h, 5 μM [3]: 0.0876
Cc1nc(C(=O)N2C(COc3ccc(F)cc3)CC3CC2C3)c(-c2ccccc2)s1 (racemic) [Example 1] | 6.31 | 295 | OX1 pKi (SPA binding) ([1]; Table 1, [3H]SB-674042 2 nM): 8.14; OX2 pKi (SPA binding) ([2]; Table 1, [3H]EMPA 2 nM): 6.97
Cc1ccc(-c2ncccn2)c(C(=O)N2C(COc3ccc(F)cn3)CC3CC2C3)n1 (single isomer, unassigned) [Example 22, (3S or 3R) 3-{[(5-fluoropyridin-2-yl)oxy]methyl}-2-{[6-methyl-3-(pyrimidin-2-yl)pyridin-2-yl]carbonyl}-2-azabicyclo[3.1.1]heptane] | 34.7 | 174 | 
Cc1ccc(-c2nccs2)c(C(=O)N2C(COc3ccc(F)cn3)CC3CC2C3)c1 (single isomer, unassigned) [Example 26, (3S or 3R) 3-{[(5-fluoropyridin-2-yl)oxy]methyl}-2-{[5-methyl-2-(1,3-thiazol-2-yl)phenyl]carbonyl}-2-azabicyclo[3.1.1]heptane] | 18.2 | 182 | 
Cc1ccc(-n2nccn2)c(C(=O)N2C(COc3ccc(F)cn3)CC3CC2C3)c1 (single isomer, unassigned) [Example 29, (3S or 3R) 3-{[(5-fluoropyridin-2-yl)oxy]methyl}-2-{[5-methyl-2-(2H-1,2,3-triazol-2-yl)phenyl]carbonyl}-2-azabicyclo[3.1.1]heptane] | 46.8 | 617 | 
Cc1ccc(-c2ncccn2)c(C(=O)N2C3CC(C3)[C@@H](C)[C@@H]2COc2ccc(F)cc2)n1 (single isomer, unassigned) [Example 93, (3S,4S or 3R,4R)-3-(4-fluorophenoxymethyl)-4-methyl-2-[6-methyl-3-(pyrimidin-2-yl)pyridine-2-carbonyl]-2-azabicyclo[3.1.]heptane] |  |  | Ki ([1]; Table 1, [3H]SB-674042 2 nM): 1.95 nM; Ki ([2]; Table 1, [3H]EMPA 2 nM): 407 nM; fraction unbound at 5 h, 5 μM [3]: 0.0258
Cc1ccc(-n2nccn2)c(C(=O)N2C3CC(C3)[C@H](C)C2COc2ccc(F)cc2)n1 (single isomer, unassigned) [Example 105, (3S,4S or 3R,4R)-3-[(4-fluorophenoxy)methyl]-4-methyl-2-[6-methyl-3-(2H-1,2,3-triazol-2-yl)pyridine-2-carbonyl]-2-azabicyclo[3.1.1]heptane] |  |  | Ki ([1]; Table 1, [3H]SB-674042 2 nM): 6.31 nM; Ki ([2]; Table 1, [3H]EMPA 2 nM): 1320 nM; fraction unbound at 5 h, 5 μM [3]: 0.0116
Cc1nc(C(=O)N2C3CC(C3)[C@H](C)C2COc2ccc(F)cc2)c(-c2ncccn2)s1 (single isomer, unassigned) [Example 115, (3R,4R) or (3S,4S)-3-[(4-fluorophenoxy)methyl]-4-methyl-2-[2-methyl-5-(pyrimidin-2-yl)-1,3-thiazole-4-carbonyl]-2-azabicyclo[3.1.1]heptane] |  |  | OX1 pKi (SPA binding) ([1]; Table 2, [3H]SB-674042 2 nM): 8.5; OX2 pKi (SPA binding) ([2]; Table 2, [3H]EMPA 2 nM): 5.93; fraction unbound at 5 h, 5 μM [3]: 0.0151
Cc1ccc(-c2ncccn2)c(C(=O)N2C(COc3ccc(Cl)cc3)CC3CC2C3)c1 (centres unmarked) [Example 19] | 91.2 | 977 | 
Cc1nc(C(=O)N2C(COc3ccc(F)cn3)CC3CC2C3)c(-c2ccccc2)s1 (centres unmarked) [Example 24] | 46.8 | 759 | 
Cc1ccc(-c2nccs2)c(C(=O)N2C(COc3ccc(F)cn3)CC3CC2C3)n1 (centres unmarked) [Example 31] | 97.7 | 776 | 
